Patent publication US9078894B2 (AB SCIENCE, priority 2011, dated 2015)
“And” between values parts separate entries of the source, which are not always exact repeats. Identical values can stand only once.

What was measured:
[1] = tested on: Balb/c male mice sensitized with ovalbumine; test: Murine model of allergic airway inflammation (ovalbumine); assay type: in vivo, mouse; settings: oral, twice daily, 25 and 100 mg/kg/day; sensitized and challenged animals
Description: Balb/c male mice aged 9 weeks were sensitized with ovalbumine (50 μg) adsorbed with Al(OH)3 diluted in physiological saline (0.9% NaCl) by intraperitoneal injection on day 1 and 7. Sensitization was followed by intranasal challenges with ovalbumine (10 μg) diluted in 0.9% NaCl every day from day 18 to day 21. Non sensitized control animals received intraperitoneal injections of vehicle alone followed by intranasal challenges with NaCl 0.9% alone at the same time than the sensitized animals. […] On day 22, airway hyper responsiveness (AHR) was measured by the enhanced pause (PenH) in the whole body plethysmograph. The bronchoconstrictive response was evaluated as the response to a concentration-dependent methacholine (MCh) aerosol exposure. Mice were first exposed to a saline aerosol then to an aerosol generated from increasing concentrations of methacholine (0.05, 0.1, 0.2, 0.3, and 0.4M). Infiltration of inflammatory cells was measured immediately after assessment of AHR to methacholine via collection of bronchoalveolar lavage (BAL) fluid by lavage of the whole lung with physiological saline containing 1.6 mM EDTA. Cells were counted in the BAL and cell types identified by morphological criteria after Hemacolor staining.

[2] = tested on: human cord blood mast cells; settings: cited from earlier work
[3] = tested on: experimentally asthmatic cats; test: Experimental feline asthma, randomized blinded placebo-controlled study; assay type: in vivo, cat
Source text: Twelve experimentally asthmatic cats were enrolled in a randomized, blinded, placebo-controlled study. […] Exclusion criteria were evidence of cardiac insufficiency, evidence of gastric bleeding, major surgery within 2 weeks of treatment initiation, life expectancy less than 3 months, lactating or pregnant cats or cats intended for breeding, previous history of kidney disease or previous known episodes of proteinuria, administration of food listed on the “recall list” issued by FDA or vaccination within 4 weeks prior to enrollment, and any concurrent medical illness. […] Bronchoalveolar lavage fluid (BALF) eosinophil percentages and airway hyper-reactivity, determined by changes in ventilator mechanics in response to methacholine (MCh) challenge were evaluated at baseline, weeks 4, 8 and 12. Results of the MCh challenge were reported as the effective concentration of MCh that increased baseline airway resistance by 200% (EC200Raw) and the end-inspiratory pressure after a breath hold (plateau pressure, Pplat). Treatment was interrupted or discontinued if predetermined adverse events were noted. Cats naïve to Bermuda grass allergen (BGA) confirmed by intradermal skin testing (IDST) and with normal BALF underwent allergen sensitization. IDST was re-evaluated to confirm allergen sensitization. Next, allergen challenge of BGA as an aerosol in awake, spontaneously breathing cats was performed. Allergen solution (100 μg of BGA dissolved in PBS) was aerosolized into a clear chamber using an air compressor attached to a nebulizer. Seven challenges were administered over the next 2 weeks, at which time BALF was repeated to confirm development of eosinophilic airway inflammation. Bronchoalveolar lavage fluid was collected in a blind fashion at baseline and weeks 4, 8, and 12 of the study. Collection of BALF was obtained after Mch challenge and under the same anesthesia. A total nucleated cell count was performed on each BALF sample using a coulter counter. Cytological evaluation and differential cell counts were performed on samples prepared by cytocentrifugation. Differential cell counts (200 nucleated cells per slide) on modified Wright's stained slides were performed, and cell percentages were reported.

[4] = tested on: asthmatic patients with severe persistent asthma; test: Phase 2a 16-week double-blind placebo-controlled study in severe persistent asthma; assay type: in vivo, human; set-up: Oral corticosteroids absolute change (W 4 to W 16), Mean ± SD / Oral corticosteroids absolute change (W 4 to W 16), Median: unit not given here
Source text: The trial consisted of three phases: during the first 4 weeks, the corticosteroid dose remained constant; during the following 8 weeks, oral corticosteroid doses were decreased each week according to a predefined schedule, until weaning or an asthma exacerbation occurred; the final 4 weeks were a stabilization period for observation. Asthma exacerbation was defined as a deterioration of asthma symptoms requiring an emergency visit, a hospitalization or an increase in oral corticosteroid treatment. In case an asthma exacerbation occurred, oral corticosteroid therapy was resumed at the level prior to this occurrence following the acute treatment phase. Patients underwent a visit every 2 weeks during the first 4 weeks, then a weekly visit for the following 12 weeks. A possible treatment extension was part of the study protocol in case of clinical benefit, based on the investigators assessment. In these extension phases the follow-up of patients took place every 4 weeks during the first 3 months and then every 12 weeks until the end of the study. The primary objective was to measure the reduction of oral corticosteroids doses after 16 weeks of treatment. Therefore, efficacy and safety measurements were assessed at enrolment of each patient in the study prior to the administration of the investigational compound and then at week 2, and weekly from weeks 4 through to 16. The secondary objectives were to monitor the change from baseline in symptomatic scores (asthma control questionnaire, ACQ), the FEV1 and rescue medication intake when necessary. Patients, 18 to 75 years of age with a diagnosis of asthma for ≧3 years and severe uncontrolled disease for ≧1 year, and followed up at the same centre for ≧1 year, were eligible for this study. […] Exclusion criteria included: (a) any other significant respiratory or cardiac disease; (b) worsening of asthma symptoms requiring treatment with additional oral corticosteroids within 4 weeks of screening; (c) any other infections; (d) a history of acute infection requiring hospitalization or treatment with antibiotics within 2 weeks of screening; (e) rare variants of severe asthma such as Churg-Strauss syndrome or allergic bronchopulmonary aspergillosis; […] A treatment wash-out period of 4 months at time of enrolment was required for prior use of omalizumab.

[5] = tested on: patients; settings: 20 of 4127 patients; cited from earlier work
[6] = tested on: patients; settings: estimated exposure of about 57,300 patients, June 2003 through December 2006; cited from earlier work
[7] = ITT population, 3.0 mg/kg/day (N = 12)
[8] = ITT population, 4.5 mg/kg/day (N = 11)
[9] = ITT population, 6.0 mg/kg/day (N = 10)
[10] = ITT population, all masitinib (N = 33)
[11] = subpopulation initially treated with >15 mg prednisone daily, 3.0 mg/kg/day (N = 9)
[12] = subpopulation initially treated with >15 mg prednisone daily, 4.5 mg/kg/day (N = 4)
[13] = subpopulation initially treated with >15 mg prednisone daily, 6.0 mg/kg/day (N = 6)
[14] = subpopulation initially treated with >15 mg prednisone daily, all masitinib (N = 19)

**Q.** What does the source list for Cc1ccc(NC(=O)c2ccc(CN3CCN(C)CC3)cc2)cc1Nc1nc(-c2cccnc2)cs1 [masitinib, 4-(4-methylpiperazin-1-ylmethyl)-N-[4-methyl-3-(4-pyridin-3ylthiazol-2-ylamino)phenyl]benzamide]?
**A.** Penh (airway hyper responsiveness) [1]: a decrease of Penh; number of eosinophils in the bronchoalveolar lavage fluid [1]: marked decrease; FcεRI-mediated degranulation [2]: inhibition of FcεRI-mediated degranulation; proteinuria, cats affected ([3]; 50 mg/day, p=0.002 vs placebo): every cat; group mean±SD % BALF eosinophils ([3]; after 4 weeks of therapy, 50 mg orally once daily, p=0.023 vs placebo): 7±9%; Pplat with MCh challenge ([3]; after 4 weeks of therapy, no significant increase in masitinib-treated cats (p=0.32)): blunting of airflow limitation; group mean±SD EC200Raw, difference between groups ([3]; at baseline or after 4 weeks of therapy, MCh challenge): no significant difference; permanent discontinuation due to proteinuria ([3]; at or after week 4): four; temporary drug interruption followed by dose reduction due to proteinuria ([3]; at or after week 4): two; other side effects suspected of being associated with masitinib administration ([3]; infrequent overall, no specific therapy required): vomiting, diarrhea, Heinz bodies, hypoalbuminemia, hypoglobulinemia, hypercholesterolemia and ALT increase; masitinib-treated cats with % BALF eosinophils <17% ([3]; week 4): five of six; % BALF eosinophils, values of individual cats ([3]; week 4, the five masitinib-treated cats below 17%): 1% (2×) and 2% and 3.5% and 15%; change in Pplat with MCh challenge versus saline aerosol, compared between treatment groups ([3]; week 4 compared to baseline): significant (p=0.033) decrease; ACQ score change ([4]; 3.0 mg/kg dose): 0.56 units; ACQ score change ([4]; 4.5 mg/kg dose): 1.57 units; ACQ score change ([4]; 6 mg/kg dose): 0.89 units; improvement of ACQ score at W16 ([4]; ITT analysis, all masitinib-treated patients, p<0.001): 0.99 unit; Oral corticosteroids absolute change (W 4 to W 16), Mean ± SD [4, 7]: −10.7 ± 19.2; Oral corticosteroids absolute change (W 4 to W 16), Median [4, 7]: −14.0; Patients weaned at W 16, number (percent) [4, 7]: 5 (41.7%); Oral corticosteroids absolute change (W 4 to W 16), Mean ± SD [4, 8]: 0.2 ± 26.8; Oral corticosteroids absolute change (W 4 to W 16), Median [4, 8]: −7.5; Patients weaned at W 16, number (percent) [4, 8]: 2 (25.0%); Oral corticosteroids absolute change (W 4 to W 16), Mean ± SD [4, 9]: −12.2 ± 18.5; Oral corticosteroids absolute change (W 4 to W 16), Median [4, 9]: −11.3; Patients weaned at W 16, number (percent) [4, 9]: 3 (37.5%); Oral corticosteroids absolute change (W 4 to W 16), Mean ± SD [4, 10]: −8.0 ± 21.3; Oral corticosteroids absolute change (W 4 to W 16), Median [4, 10]: −12.3; Patients weaned at W 16, number (percent) [4, 10]: 10 (35.7%); masitinib-related AE: diarrhea ([4]; all masitinib-treated patients): 18.2%; masitinib-related AE: fatigue ([4]; all masitinib-treated patients): 12.1%; masitinib-related AE: nausea ([4]; all masitinib-treated patients): 30.3%; masitinib-related AE: peripheral edema ([4]; all masitinib-treated patients): 18.2%; masitinib-related AE: pruritus ([4]; all masitinib-treated patients): 12.1%; masitinib-related AE: skin rash ([4]; all masitinib-treated patients): 30.3%; masitinib-related AE: vomiting ([4]; all masitinib-treated patients): 12.1%; patients who experienced at least one AE ([4]; all patients treated with masitinib, regardless of dose): 93.9%; change in lung function ([4]; in this trial): no significant change in lung function; asthma exacerbation rate in patients experiencing at least one exacerbation, decrease ([4]; masitinib group, all doses merged): 42.4%; rate of asthma exacerbation compared to placebo ([4]; masitinib-treated patients): significantly reduced; percent reduction in oral corticosteroid doses ([4]; patients receiving >15 mg equivalent prednisone per day at baseline, all masitinib-treated patients): 52±53%; patients weaned off oral corticosteroids at W16, number ([4]; patients receiving >15 mg equivalent prednisone per day at baseline, masitinib treatment groups): six; Oral corticosteroids absolute change (W 4 to W 16), Mean ± SD [4, 11]: −17 ± 9; Oral corticosteroids absolute change (W 4 to W 16), Median [4, 11]: −20; Oral corticosteroids percent change (W 4 to W 16), Mean ± SD [4, 11]: −68 ± 38%; Oral corticosteroids percent change (W 4 to W 16), Median [4, 11]: −81%; Patients weaned at W 16, number (percent) [4, 11]: 4 (44.4%); Oral corticosteroids absolute change (W 4 to W 16), Mean ± SD [4, 12]: −7 ± 8; Oral corticosteroids absolute change (W 4 to W 16), Median [4, 12]: −5; Oral corticosteroids percent change (W 4 to W 16), Mean ± SD [4, 12]: −33 ± 42%; Oral corticosteroids percent change (W 4 to W 16), Median [4, 12]: −19%; Patients weaned at W 16, number (percent) [4, 12]: 0 (0.0%); Oral corticosteroids absolute change (W 4 to W 16), Mean ± SD [4, 13]: −14 ± 22; Oral corticosteroids absolute change (W 4 to W 16), Median [4, 13]: −16; Oral corticosteroids percent change (W 4 to W 16), Mean ± SD [4, 13]: −40 ± 78%; Oral corticosteroids percent change (W 4 to W 16), Median [4, 13]: −69%; Patients weaned at W 16, number (percent) [4, 13]: 2 (33.3%); Oral corticosteroids absolute change (W 4 to W 16), Mean ± SD [4, 14]: −14 ± 14; Oral corticosteroids absolute change (W 4 to W 16), Median [4, 14]: −15; Oral corticosteroids percent change (W 4 to W 16), Mean ± SD [4, 14]: −52 ± 53%; Oral corticosteroids percent change (W 4 to W 16), Median [4, 14]: −65%

**Q.** With “omalizumab: an anti-immunoglobulin E antibody (anti-IgE) approved for severe allergic asthma” as the compound, how does the “malignant neoplasms observed in omalizumab-treated patients” value [5] read?
**A.** 0.5%

**Q.** And the “frequency of anaphylaxis attributed to omalizumab use” value [6]?
**A.** at least 0.2%
